The source of these data is patent US20230081426A1, “COMPOUNDS AND METHODS FOR KRAS MODULATION AND INDICATIONS THEREFOR” (Plexxikon Inc., priority 2020, published 2023).

The term IC50 denotes the concentration at which inhibition is half-maximal.

Assay [1] has as its target T1, G12D-mutant human KRAS (amino acid residues 1-188) (Homo sapiens, UniProt P01116, G12D).
T1 construct: G12D or G12C-mutant human KRAS (amino acid residues 1-188) with FLAG tag; made in house; host or cells: E. coli
Put plainly: KRAS Binding Disruption Assay (AlphaScreen; biotinylated KRpep-2d analogue or RAF1-RBD), G12D. The conditions noted are these: KRAS G12D; geometric mean; read-out: KRAS GMean IC50 (uM) MUTATION: G12D. The essentials: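 Displacement format with mutant KRAS, biotinylated KRpep-2d analogue or RAF1-RBD (5-20 nM each) at pH 7.5 with 5 mM MgCl2.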

Assay [2] has as its target T2, G12V-mutant human KRAS (amino acid residues 1-188) (Homo sapiens, UniProt P01116, G12V).
T2 construct: G12V-mutant human KRAS (amino acid residues 1-188) with FLAG tag was purified from E. coli; made in house; host or cells: E. coli
Put plainly: KRAS Binding Competition Assay (AlphaScreen; biotinylated KRpep-2d analogue), G12V. As to conditions: geometric mean, read-out: KRAS GMean IC50 (uM) MUTATION: G12V. On the technique in general: Bead proximity is the source of the signal in Alpha formats.

Molecules are shown by their SMILES.

`Oc1cc(-c2ccc3c(N4C[C@H]5CC[C@@H](C4)N5)nc(CCN4CCCC4)nc3c2F)c2ccccc2c1` [P-0439, 4-(4-((1R,5S)-3,8-diazabicyclo[3.2.1]octan-3-yl)-8-fluoro-2-(2-(pyrrolidin-1-yl)ethyl)quinazolin-7-yl)naphthalen-2-ol]: the half-maximal inhibitory concentration (IC50) in assay [1] is 0.0001 to 10 µM; in assay [2] it was 10 to 100 µM.
With `C[C@H]1CCCN1CCc1nc(N2C[C@H]3CC[C@@H](C2)N3)c2ccc(-c3cc(O)cc4ccccc34)c(F)c2n1` [P-0440, 4-(4-((1R,5S)-3,8-diazabicyclo[3.2.1]octan-3-yl)-8-fluoro-2-(2-((S)-2-methylpyrrolidin-1-yl)ethyl)quinazolin-7-yl)naphthalen-2-ol], the IC50 in assay [1] lay in the range of 0.0001 to 10 µM; in assay [2] it was 10 to 100 µM.
In the same order, the values of `Fc1cc2c(N3C[C@H]4CC[C@@H](C3)N4)nc(OCC34CCCN3CCC4)nc2c(F)c1-c1c[nH]c2ccc(Cl)c(F)c12` [P-0441, 4-((1R,5S)-3,8-diazabicyclo[3.2.1]octan-3-yl)-7-(5-chloro-4-fluoro-1H-indol-3-yl)-6,8-difluoro-2-((tetrahydro-1H-pyrrolizin-7a(5H)-yl)methoxy)quinazoline] are 0.0001 to 10 µM and 0.0001 to 10 µM.
On the same counts, the results for `Cc1cccc2cccc(-c3ccc4c(N5C[C@H]6CC[C@@H](C5)N6C(=O)CC#N)nc(OCC56CCCN5CCC6)nc4c3F)c12` [P-0442, 3-((1R,5S)-3-(8-fluoro-7-(8-methylnaphthalen-1-yl)-2-((tetrahydro-1H-pyrrolizin-7a(5H)-yl)methoxy)quinazolin-4-yl)-3,8-diazabicyclo[3.2.1]octan-8-yl)-3-oxopropanenitrile] are 10 to 100 µM and 0.0001 to 10 µM.
As for `CN1CCC[C@H]1COc1nc(N2C[C@H]3CC[C@@H](C2)N3)c2cnc(N3CC(=O)Nc4cccc(Cl)c43)c(F)c2n1` [P-0444, 4-(4-((1R,5S)-3,8-diazabicyclo[3.2.1]octan-3-yl)-8-fluoro-2-(((S)-1-methylpyrrolidin-2-yl)methoxy)pyrido[4,3-d]pyrimidin-7-yl)-5-chloro-3,4-dihydroquinoxalin-2(1H)-one], the IC50 in assay [1] was in the range of 10 to 100 µM; in assay [2] it was 100 to 1000 µM.
Regarding `CN(C)Cc1nc(N2C[C@H]3CC[C@@H](C2)N3)c2cc(Cl)c(-c3c(O)cccc3F)c(F)c2n1` [P-0445, 2-(4-((1R,5S)-3,8-diazabicyclo[3.2.1]octan-3-yl)-6-chloro-2-((dimethylamino)methyl)-8-fluoroquinazolin-7-yl)-3-fluorophenol], the IC50 in assay [1] and in assay [2] was 10 to 100 µM in each case.
In the case of `O=C1c2ccccc2C(=O)N1Cc1nc(N2C[C@H]3CC[C@@H](C2)N3)c2cc(Cl)c(-c3c(O)cccc3F)c(F)c2n1` [P-0446, 2-((4-((1R,5S)-3,8-diazabicyclo[3.2.1]octan-3-yl)-6-chloro-8-fluoro-7-(2-fluoro-6-hydroxyphenyl)quinazolin-2-yl)methyl)isoindoline-1,3-dione], the IC50 in assay [1] and in assay [2] was 10 to 100 µM in each case.
For the compound `CN1CCC[C@H]1COc1nc(N2C[C@H]3CC[C@@H](C2)N3C(=O)CC2SC(=O)NC2=O)c2cc(Cl)c(-c3cc(O)cc4ccccc34)c(F)c2n1` (stereo partly drawn) [P-0447, 5-(2-((1R,5S)-3-(6-chloro-8-fluoro-7-(3-hydroxynaphthalen-1-yl)-2-(((S)-1-methylpyrrolidin-2-yl)methoxy)quinazolin-4-yl)-3,8-diazabicyclo[3.2.1]octan-8-yl)-2-oxoethyl)thiazolidine-2,4-dione], the IC50 in assay [1] and in assay [2] was 0.0001 to 10 µM each time.
For `Fc1cc2c(N3C[C@H]4CC[C@@H](C3)N4)nc(OCC34CCCN3CCC4)nc2c(F)c1-c1c[nH]c2cccc(F)c12` [P-0448, 4-((1R,5S)-3,8-diazabicyclo[3.2.1]octan-3-yl)-6,8-difluoro-7-(4-fluoro-1H-indol-3-yl)-2-((tetrahydro-1H-pyrrolizin-7a(5H)-yl)methoxy)quinazoline], the IC50 was 0.0001 to 10 µM in assay [1] and 10 to 100 µM in assay [2].
In the case of `CC(C(=O)N1[C@@H]2CC[C@H]1CN(c1nc(OCC34CCCN3CCC4)nc3c(F)c(-c4cc(O)cc5ccccc45)ccc13)C2)S(N)(=O)=O` (stereo partly drawn) [P-0449, 1-((1R,5S)-3-(8-fluoro-7-(3-hydroxynaphthalen-1-yl)-2-((tetrahydro-1H-pyrrolizin-7a(5H)-yl)methoxy)quinazolin-4-yl)-3,8-diazabicyclo[3.2.1]octan-8-yl)-1-oxopropane-2-sulfonamide], the IC50 in assay [1] and in assay [2] was 0.0001 to 10 µM each time.
With `COC(=N)CC(=O)N1[C@@H]2CC[C@H]1CN(c1nc(OC[C@@H]3CCCN3C)nc3c(F)c(-c4cc(O)cc5ccccc45)c(Cl)cc13)C2` [P-0450, methyl 3-((1R,5S)-3-(6-chloro-8-fluoro-7-(3-hydroxynaphthalen-1-yl)-2-(((S)-1-methylpyrrolidin-2-yl)methoxy)quinazolin-4-yl)-3,8-diazabicyclo[3.2.1]octan-8-yl)-3-oxopropanimidate], the IC50 in assay [1] and in assay [2] was 10 to 100 µM in each case.
On to `CN1CCC[C@H]1COc1nc(N2C[C@H]3CC[C@@H](C2)N3C(=O)CC(N)=O)c2cc(Cl)c(-c3cc(O)cc4ccccc34)c(F)c2n1` [P-0451, 3-((1R,5S)-3-(6-chloro-8-fluoro-7-(3-hydroxynaphthalen-1-yl)-2-(((S)-1-methylpyrrolidin-2-yl)methoxy)quinazolin-4-yl)-3,8-diazabicyclo[3.2.1]octan-8-yl)-3-oxopropanamide], for which the IC50 in assay [1] was in the range of 0.0001 to 10 µM; in assay [2], 10 to 100 µM.
Turning to `NS(=O)(=O)C1(C(=O)N2[C@@H]3CC[C@H]2CN(c2nc(OCC45CCCN4CCC5)nc4c(F)c(-c5cc(O)cc6ccccc56)ccc24)C3)CC1` [P-0452, 1-((1R,5S)-3-(8-fluoro-7-(3-hydroxynaphthalen-1-yl)-2-((tetrahydro-1H-pyrrolizin-7a(5H)-yl)methoxy)quinazolin-4-yl)-3,8-diazabicyclo[3.2.1]octane-8-carbonyl)cyclopropane-1-sulfonamide], the IC50 in assay [1] and in assay [2] was 0.0001 to 10 µM throughout.
As for `Cc1cccc2c1N(c1ncc3c(N4C[C@H]5CC[C@@H](C4)N5)nc(OCC45CCCN4CCC5)nc3c1F)CC(O)C2` (stereo partly drawn) [P-0453, 1-(4-((1R,5S)-3,8-diazabicyclo[3.2.1]octan-3-yl)-8-fluoro-2-((tetrahydro-1H-pyrrolizin-7a(5H)-yl)methoxy)pyrido[4,3-d]pyrimidin-7-yl)-8-methyl-1,2,3,4-tetrahydroquinolin-3-ol], the IC50 in assay [1] was in the range of 0.0001 to 10 µM; in assay [2], 100 to 1000 µM.
For `Cc1cccc2c1N(c1ccc3c(N4C[C@H]5CC[C@@H](C4)N5)nc(OCC45CCCN4CCC5)nc3c1F)CC(O)C2` (stereo partly drawn) [P-0454, 1-(4-((1R,5S)-3,8-diazabicyclo[3.2.1]octan-3-yl)-8-fluoro-2-((tetrahydro-1H-pyrrolizin-7a(5H)-yl)methoxy)quinazolin-7-yl)-8-methyl-1,2,3,4-tetrahydroquinolin-3-ol], the IC50 in assay [1] was 0.0001 to 10 µM; in assay [2] it was 100 to 1000 µM.
As to `CCCc1nc(N2C[C@H]3CC[C@@H](C2)N3)c2ccc(-c3cc(O)cc4ccccc34)c(F)c2n1` [P-0455, 4-(4-((1R,5S)-3,8-diazabicyclo[3.2.1]octan-3-yl)-8-fluoro-2-propylquinazolin-7-yl)naphthalen-2-ol], the IC50 lay in the range of 0.0001 to 10 µM in assay [1] and 10 to 100 µM in assay [2].
For `OCc1nc(N2C[C@H]3CC[C@@H](C2)N3)c2cc(Cl)c(-c3c(O)cccc3F)c(F)c2n1` [P-0456, 2-(4-((1R,5S)-3,8-diazabicyclo[3.2.1]octan-3-yl)-6-chloro-8-fluoro-2-(hydroxymethyl)quinazolin-7-yl)-3-fluorophenol], the IC50 in assay [1] and in assay [2] was 10 to 100 µM in each case.
Consider `Cc1cccc2c(Nc3c(F)cc4c(N5C[C@H]6CC[C@@H](C5)N6)nc(OC[C@@H]5CCCN5C)nc4c3F)n[nH]c12` [P-0457, 4-((1R,5S)-3,8-diazabicyclo[3.2.1]octan-3-yl)-6,8-difluoro-N-(7-methyl-1H-indazol-3-yl)-2-(((S)-1-methylpyrrolidin-2-yl)methoxy)quinazolin-7-amine], for which the IC50 in assay [1] and in assay [2] was 10 to 100 µM each time.
Regarding `CN1CCC[C@H]1COc1nc(N2C[C@H]3CC[C@@H](C2)N3)c2ccc(-n3nc(O)c4cccc(F)c43)c(F)c2n1` [P-0458, 1-(4-((1R,5S)-3,8-diazabicyclo[3.2.1]octan-3-yl)-8-fluoro-2-(((S)-1-methylpyrrolidin-2-yl)methoxy)quinazolin-7-yl)-7-fluoro-1H-indazol-3-ol], the IC50 was in the range of 10 to 100 µM in assay [1] and 100 to 1000 µM in assay [2].
For `OCC(O)c1nc(N2C[C@H]3CC[C@@H](C2)N3)c2ccc(-c3cc(O)cc4ccccc34)c(F)c2n1` (stereo partly drawn) [P-0459, 1-(4-((1R,5S)-3,8-diazabicyclo[3.2.1]octan-3-yl)-8-fluoro-7-(3-hydroxynaphthalen-1-yl)quinazolin-2-yl)ethane-1,2-diol], the IC50 in assay [1] and in assay [2] was 0.0001 to 10 µM each time.
With `CN1CC(=O)N(Cc2nc(N3C[C@H]4CC[C@@H](C3)N4)c3cc(Cl)c(-c4c(O)cccc4F)c(F)c3n2)C1=O` [P-0460, 3-((4-((1R,5S)-3,8-diazabicyclo[3.2.1]octan-3-yl)-6-chloro-8-fluoro-7-(2-fluoro-6-hydroxyphenyl)quinazolin-2-yl)methyl)-1-methylimidazolidine-2,4-dione], the concentration for half-maximal inhibition (IC50) in assay [1] and in assay [2] was 10 to 100 µM in each case.
